Experimental data as given in PubChem BioAssay AID1985 (Southern Research Specialized Biocontainment Screening …, 2009).

system: S. Typhi PhoP-promoter GFP reporter, fluorescence, 4 h; test: modified counter assay using GFP fluorescence, PhoP regulon inhibitor project, dose response (AID 1985)

Question: `CCCC(=O)NC(c1ccco1)c1cc([N+](=O)[O-])c2cccnc2c1O` (stereo not given) was tested. Which IC50 did it give?
Answer: 8.65 µM

Question: `CC(C)(c1ccccc1)c1ccc(OCCCNCCO)cc1` was tested. Which IC50 did it give?
Answer: 93.5 µM

Question: How did the IC50 turn out when `O=[N+]([O-])c1cc(F)c2cccnc2c1O` was run?
Answer: 4.83 µM

Question: Which IC50 does the source give for `O=C(/C=C(\O)c1ccccc1)C(=O)NNC(=O)c1ccccc1` here?
Answer: 19.7 µM

Question: Which IC50 does the source give for `CN(CC(=O)Nc1ccc(F)c(F)c1F)c1cnccn1` here?
Answer: 108 µM

Question: With `Fc1ccc(Nc2c3c(nc4ccccc24)CCC3)cc1` as the compound, how does the IC50 read?
Answer: 85 µM

Question: With `COCCCNC(=S)NNC(=O)c1ccccn1` as the compound, how does the IC50 read?
Answer: 25.7 µM

Question: How did the IC50 turn out when `O=C(O)c1ccc(N2C(=O)CSC2=S)cc1` was run?
Answer: 144 µM

Question: How did the IC50 turn out when `C#CCOCCOCCOCCNc1nc(N2CCN(C(=O)[C@H]([C@@H](C)CC)n3cc([C@@H](N)Cc4ccc(O)cc4)nn3)CC2)nc(N2CCN(C(=O)[C@H](Cc3cc4ccccc4[nH]3)n3cc([C@@H](N)CC(C)C)nn3)CC2)n1` was run?
Answer: 150 µM

Question: For `CC(C(=O)NC1C=CS(=O)(=O)C1)N1C(=O)/C(=C/c2cccc(Cl)c2)SC1=S` (stereo not given), which IC50 is on record?
Answer: 33.6 µM

Question: For `Cc1cccc(NC2=NC3(CCCCC3)N=C(N)N2)c1`, which IC50 is on record?
Answer: 88.4 µM

Question: For `CCOC(=O)N1CCC(=NNc2ccnc3cc(Cl)ccc23)CC1`, which IC50 is on record?
Answer: 61.2 µM

Question: Which IC50 does the source give for `COc1cccc2c(=O)c(C(=O)O)c[nH]c12` here?
Answer: 106 µM

Question: How did the IC50 turn out when `CCN1CCN(C(=O)c2cc3cc(Cl)ccc3[nH]2)CC1` was run?
Answer: 67.4 µM

Question: Which IC50 does the source give for `COc1ccc(Cc2nnc(N/N=C/c3ccc(O)cc3)[nH]c2=O)cc1OC` here?
Answer: 54.8 µM

Question: How did the IC50 turn out when `O=c1[nH][nH]c(-c2ccccc2O)c1C(C[N+](=O)[O-])c1ccc(Br)cc1` (stereo not given) was run?
Answer: 71.7 µM

Question: Which IC50 does the source give for `CCOc1ccc(Nc2nc(N)c3ccccc3n2)cc1` here?
Answer: 44.5 µM

Question: For `CCC(O)(CC)C(=O)N/N=C/c1cc(Br)cc(Br)c1O`, which IC50 is on record?
Answer: 60.9 µM

Question: For `Nc1nc(F)nc2c1ncn2[C@@H]1O[C@H](CO)[C@@H](O)[C@H]1O`, which IC50 is on record?
Answer: 3.76 µM

Question: With `ON=C1/C(=N\O)CC2(C/C1=N/O)OCCO2` as the compound, how does the IC50 read?
Answer: 112 µM

Question: `C=C1c2c(Cl)ccc(O)c2C(O)=C2C(=O)[C@]3(O)C(O)=C(C(N)=O)C(=O)[C@@H](N(C)C)[C@@H]3[C@@H](O)C12` (stereo not given in full) was tested. Which IC50 did it give?
Answer: 0.924 µM

Question: With `Oc1cccc2ccc(Nc3ccccn3)nc12` as the compound, how does the IC50 read?
Answer: 11.6 µM

Question: `O=[N+]([O-])c1ccc(O)c(/C=N/Nc2ccccn2)c1` was tested. Which IC50 did it give?
Answer: 15.2 µM

Question: For `O=C(N[C@H](CO)[C@H](O)c1ccc([N+](=O)[O-])cc1)C(Cl)Cl`, which IC50 is on record?
Answer: 2.71 µM

Question: Which IC50 does the source give for `Nc1cccc2nc3ccccc3cc12` here?
Answer: 44.5 µM

Question: For `CCN1/C(=C/C(C)=C/c2sc3ccccc3[n+]2CC)Sc2ccccc21`, which IC50 is on record?
Answer: 12.6 µM

Question: `C#CCOCCOCCOCCNc1nc(N2CCN(C(=O)[C@H](Cc3cc4ccccc4[nH]3)n3cc([C@@H](N)CC(C)C)nn3)CC2)nc(N2CCN(C(=O)[C@H](Cc3cc4ccccc4[nH]3)n3cc([C@@H](N)CC(C)C)nn3)CC2)n1` was tested. Which IC50 did it give?
Answer: 67.5 µM

Question: With `Oc1cccc(C=NCc2ccccc2)c1O` as the compound, how does the IC50 read?
Answer: 57.7 µM

Question: For `COc1cc(Br)cc(C=Nc2cccc(C(F)(F)F)c2)c1O`, which IC50 is on record?
Answer: 69.4 µM

Question: For `COc1cccc(/C=N\NC(=O)Cn2nnc3ccccc32)c1O`, which IC50 is on record?
Answer: 97.7 µM

Question: Which IC50 does the source give for `CCN1c2ccccc2NC2N=C(OC)C(c3ccccc3)C21` (stereo not given) here?
Answer: 55.8 µM

Question: `CN1CC=C(/C=C/c2ccc(-c3ccccc3)cc2)CC1` was tested. Which IC50 did it give?
Answer: 95.2 µM

Question: How did the IC50 turn out when `CCCCCc1ccc(OCCCC[n+]2ccccc2)c(CCCCC)c1` was run?
Answer: 74.5 µM

Question: `CC1COc2c(N3CCN(C)CC3)c(F)cc3c(=O)c(C(=O)O)cn1c23` (stereo not given) was tested. Which IC50 did it give?
Answer: < 0.23 µM

Question: `O=C1CSC(=S)N1c1cccc(O)c1` was tested. Which IC50 did it give?
Answer: 72.8 µM

Question: `S=C(Nc1cc(Cl)cc(Cl)c1)NC1CCN(Cc2ccccc2)CC1` was tested. Which IC50 did it give?
Answer: 36.7 µM

Question: How did the IC50 turn out when `CCOc1ccc(OCCSc2nc3ccccc3[nH]2)cc1` was run?
Answer: 106 µM

Question: With `Cc1ccc(C(c2cc(Cl)c3cccnc3c2O)N2CCN(C)CC2)cc1` (stereo not given) as the compound, how does the IC50 read?
Answer: 48.2 µM

Question: With `CN1CCN(CC(=O)N2CCn3c4c(c5cc(C6CCCCC6)ccc53)CCCC42)CC1` (stereo not given) as the compound, how does the IC50 read?
Answer: 76.5 µM

Question: How did the IC50 turn out when `Nc1nc2ccccc2n1Cc1ccc(Cl)c(Cl)c1` was run?
Answer: 54.6 µM

Question: With `CC(=O)NC(c1ccc2ccccc2c1)c1ccc2cccnc2c1O` (stereo not given) as the compound, how does the IC50 read?
Answer: 68.4 µM

Question: Which IC50 does the source give for `N=C(N)c1ccc(/C=C/c2ccc(C(=N)N)cc2O)cc1` here?
Answer: 16.2 µM

Question: With `COc1ccc(CNCCC(c2ccccc2)c2ccc3c(c2)OCO3)cc1` (stereo not given) as the compound, how does the IC50 read?
Answer: 149 µM

Question: `Oc1c(Cl)cc(CN2CCCCC2)c2cccnc12` was tested. Which IC50 did it give?
Answer: 15 µM

Question: With `CCc1ccc2c(c1)Sc1ccccc1CC2N1CCN(C)CC1` (stereo not given) as the compound, how does the IC50 read?
Answer: 76.8 µM

Question: With `CC(C)Cc1c(O)nc(SCC(=O)Nc2ccc3c(c2)CCC3)[nH]c1=O` as the compound, how does the IC50 read?
Answer: 95.4 µM

Question: `CN(C)CC/C=C1/c2ccccc2Sc2ccc(Cl)cc21` was tested. Which IC50 did it give?
Answer: 86.2 µM

Question: How did the IC50 turn out when `CC1CC(=O)c2c(cc3c(-c4c(O)cc(O)c5c(O)c6c(cc45)OC(C)CC6=O)c(O)cc(O)c3c2O)O1` (stereo not given) was run?
Answer: 27 µM

Question: For `CN1CCN(C2=Cc3cc(Cl)ccc3Sc3cc(F)ccc32)CC1`, which IC50 is on record?
Answer: 137 µM

Question: `COc1cccc(CNCCc2c[nH]c3ccccc23)c1OCc1ccccc1` was tested. Which IC50 did it give?
Answer: 150 µM

Question: `Nn1cnnc1N/N=C\c1ccc(-c2ccccc2[N+](=O)[O-])o1` was tested. Which IC50 did it give?
Answer: 29 µM

Question: Which IC50 does the source give for `CCCCOc1ccc(C(=O)OC2CC(C)N(C)CC2C)cc1` (stereo not given) here?
Answer: 41.7 µM

Question: For `O=C(CCN1CCN(C(=O)c2ccccc2)CC1)c1ccc(Br)cc1`, which IC50 is on record?
Answer: 144 µM

Question: With `O=C1OCCN1/N=C/c1ccc([N+](=O)[O-])o1` as the compound, how does the IC50 read?
Answer: 13.4 µM

Question: For `O=C(CSC1=NC(=O)C(c2ccccc2)C(=O)N1)Nc1cccc(Cl)c1` (stereo not given), which IC50 is on record?
Answer: 20.6 µM
